Measured values taken from patent US20100215822A1, “MOUTHFEEL ENHANCING INGREDIENTS” (Firmenich SA, priority 2007, published 2010).
Entries after “also recorded” stand apart in the source; their conditions may differ. Where two headings read alike, the source gives them in different places.

Columns and labels:
skilled panelists = test: Evaluation of the mouthfeel enhancer in Diet Cola, tasted blind by panel; type: in vivo; conditions: for Results (mouthfeel, sweetness, off-notes and other descriptors): 5 mg in 300 mL commercial Diet Cola, tasted blind by 4-5 skilled panelists by comparison with Diet Cola without mouthfeel enhancer (reference); for Overall result: deliver the mouthfeel required in the reduced-sugar beverage without further generating undesirable off-notes: 5 mg in 300 mL Diet Cola
[1] = Solubility observed in Diet Cola samples
Procedure: 5 mg of each of the following compounds, all obtained from Avanti Polar Lipids, Inc., Alabama, USA was added to 300 mL of a commercially available Diet Cola in a bottle. The bottles were then closed and shaken by hand for 1 min at room temperature. Following this, the bottles were sonicated for 5 min in an ultrasonic bath and then stored at room temperature overnight. All samples were tasted blind by 4-5 skilled panelists and assessed, by comparison with a Diet Cola not containing any mouthfeel enhancer, for mouthfeel, sweetness, off-notes and other descriptors.

Molecule	Results (mouthfeel, sweetness, off-notes and other descriptors) (skilled panelists)	Overall result: deliver the mouthfeel required in the reduced-sugar beverage without further generating undesirable off-notes (skilled panelists)	Solubility in Diet Cola [1]	Solubility in Diet Cola ([1]; 5 mg in 300 mL Diet Cola, shaken 1 min, sonicated 5 min, stored at room temperature overnight)
CCCCCCCCCC(=O)OC[C@@H](O)COP(=O)([O-])OCC[N+](C)(C)C [1-Capryl-2-hydroxy-glycero-3-phosphocholine]	slightly more mouthfeel, close to reference			
CCCCCCCC/C=C\CCCCCCCC(=O)OCC(O)COP(=O)(O)OCC(O)CO (stereo not shown) [1-Oleoyl-2-hydroxy-glycero-3-phosphoglycerol]	less sour, more sweet, similar to reference			
CCCCCCCCCCCCCCCC(=O)OCC(O)COP(=O)(O)OCC(O)CO (stereo not shown) [1-Palmitoyl-2-hydroxy-glycero-3-phosphoglycerol]	slightly more mouthfeel, creamy, similar to reference			
CCCCCC(=O)OCC(COP(=O)(O)O)OC(=O)CCCCC (stereo not shown) [Dicaproylphosphatidic acid]	Thin, typical diet cola, slight metallic off-note, and sweet, acidic, more lemon, lingering/long lasting, and oily			
CCCCCC(=O)OC[C@H](COP(=O)(O)OCC[N+](C)(C)C)OC(=O)CCCCC [Dicaproylphosphatidyl choline]	More acidity than others, sweeter, smoother, fuller,; also recorded: more mouthfeel, similar mouthfeel	Excellent results		
CCCCCC(=O)OC[C@H](COP(=O)(O)OCCN)OC(=O)CCCCC [Dicaproylphosphatidyl ethanolamine]	Quite metallic, slightly more fatty, sweet lingering,; also recorded: thin, less sweet, less flavor, lingering fatty taste;			
CCCCCCCC(=O)OC[C@H](COP(=O)([O-])OCC[N+](C)(C)C)OC(=O)CCCCCCC [Dicapryloylphosphatidylcholine]	Some mouthfeel, similar to reference, slight off-note			
CCCCCCCCCCCC(=O)OC[C@H](COP(=O)(O)O)OC(=O)CCCCCCCCCCC [Dilauroylphosphatidic acid]	More Mouthfeel, fatty, fuller, clean, acidic, more; also recorded: sour and harsh, oily			
CCCCCCCCCCCC(=O)OC[C@H](COP(=O)([O-])OCC[N+](C)(C)C)OC(=O)CCCCCCCCCCC [Dilauroylphosphatidyl choline]		Excellent results		
CCCCCCCCCCCC(=O)OC[C@H](COP(=O)(O)OCCN)OC(=O)CCCCCCCCCCC [Dilauroylphosphatidyl ethanolamine]	Very similar to reference, slightly fuller, sweeter,; also recorded: citrusy			
CCCCCCCCCCCC(=O)OCC(COP(=O)(O)OCC(O)CO)OC(=O)CCCCCCCCCCC (stereo not shown) [Dilauroylphosphatidyl glycerol]	Sweeter, similar to reference, fatty, off-note, waxy,; also recorded: good sweetness, slightly flat aroma			
CCCCCCCCCCCCCC(=O)OC[C@H](COP(=O)([O-])OCC[N+](C)(C)C)OC(=O)CCCCCCCCCCCCC [Dimyristoylphosphatidylcholine]	carbonated, sweeter	Excellent results		
CCCCCCCC/C=C\CCCCCCCC(=O)OC[C@H](COP(=O)(O)O)OC(=O)CCCCCCC/C=C\CCCCCCCC [Dioleoylphosphatidic acid]	More mouthfeel, fatty, fuller, very drying,; also recorded: mouthcoating, less lingering, oily			
CCCCCCCC/C=C\CCCCCCCC(=O)OC[C@H](COP(=O)(O)OCCN)OC(=O)CCCCCCC/C=C\CCCCCCCC [Dioleoylphosphatidyl ethanolamine]	Slightly sweeter, slightly more bitter, fatty/waxy off-		not completely soluble	
CCCCCCCC/C=C\CCCCCCCC(=O)OC[C@H](COP(=O)(O)OCC(O)CO)OC(=O)CCCCCCC/C=C\CCCCCCCC (stereo partly shown) [Dioleoylphosphatidyl glycerol]	chemical, slight off-note on taste			
CCCCCCCCCCCCCCCC(=O)OC[C@H](COP(=O)(O)O)OC(=O)CCCCCCCCCCCCCCC [Dipalmitoylphosphatidic acid]	smooth, good mouthfeel, slightly oily, no off-note; also recorded: More mouthfeel, fatty, fuller, heavy, sweeter,	Excellent results		
CCCCCCCCCCCCCCCC(=O)OC[C@H](COP(=O)([O-])OCC[N+](C)(C)C)OC(=O)CCCCCCCCCCCCCCC [Dipalmitoylphosphatidyl choline]	Sweeter, nice sweetness but lingering, good; also recorded: difference, slightly fuller, slightly fatty	Excellent results		
CCCCCCCCCCCCCCCC(=O)OCC(COP(=O)(O)OCCN)OC(=O)CCCCCCCCCCCCCCC (stereo not shown) [Dipalmitoylphosphatidyl ethanolamine]	less flavor, lingering fatty			completely soluble
CCCCCCCCCCCCCCCC(=O)OCC(COP(=O)(O)OCC(O)CO)OC(=O)CCCCCCCCCCCCCCC (stereo not shown) [Dipalmitoylphosphatidyl glycerol]	Seems less carbonated, less acidic, more citrusy; also recorded: aroma, better mouthfeel, less metallic, good; also recorded: no off-note	Excellent results		
Dicaprylphosphatidylcholine	More mouthfeel, good mouthfeel, more body,; also recorded: creamy, sl. more sweet, good sweetness	Excellent results		
